Data: patent publication US20220313670A1, “Methods Of Treating Fabry Disease In Patients Having Renal Impairment” (Amicus Therapeutics, Inc., priority 2019, published 2022)
Read-outs that look alike come from different tables or passages of the source.

Assays:
[1] = FACETS (011) population PK from sparse blood sampling in Fabry patients; format: in vivo, human; conditions: for Comparison to FACETS PPK (migalastat concentration): Fabry patients of FACETS
Source text: One or more of the dosing regimens described herein are particularly suitable for Fabry patients who have some degree of renal impairment. […] FACETS (011, NCT00925301) was a 24-month trial, including a 6-month double-blind, placebo-controlled period, in 67 enzyme replacement therapy (ERT)-naive patients. ATTRACT (012, NCT01218659) was an active-controlled, 18-month trial in 57 ERT-experienced patients with a 12-month open-label extension (OLE). Both the FACETS and ATTRACT studies included patients having an estimated glomerular filtration rate (eGFR) of ≥30 ml/min/1.73 m^2. Accordingly, both studies included Fabry patients with normal renal function as well as patients with mild and moderate renal impairment, but neither study included patients with severe renal impairment.
Thus, two Fabry patients with renal impairment were evaluated. One patient (P1) had moderate renal impairment, while the other patient (P2) had severe renal impairment. […] The comparison with the results from the FACETS study allows for comparison of PK in the Fabry population with mostly normal, but some mild and a few moderately impaired Fabry patients. None had severe renal impairment because these patients were excluded from the study.

[2] = Pharmacokinetics of migalastat HCl in a Fabry patient with severe renal impairment (P3, 2004-5029; Example 6); format: in vivo, human
Experimental: Migalastat levels can be measured via methods known in the art. […] Microcentrifuge tubes containing 100 μl of the tissue homogenate or 50 μl of plasma may then be spiked with 500 ng/mL 13C d2-AT1001 HCl internal standard (manufactured by MDS Pharma Services). A 600 μl volume of 5 mM HCl in 95/5 MeOH:H2O can then be added and the tubes vortexed for 2 minutes, followed by centrifugation at 21000×g for 10 minutes at room temperature. The supernatants may then be collected into a clean, 96-well plate, diluted with 5 mM HCl in dH2O and applied to a 96-well solid phase extraction (SPE) plate (Waters Corp., Milford Mass.). […] The liquid chromatography can be conducted using an ACN:water:formate binary mobile phase system (mobile phase A: 5 mM ammonium formate, 0.5% formic acid in 95:5 ACN:water; mobile phase B: 5 mM ammonium formate, 0.5% formic acid in 5:47.5:47.5 ACN:MeOH:water) with a flow rate of 0.7 mL/minute on an Halo HILIC column (150×4.6 mm, 2.7 μm) (Advanced Materials Technology, Inc.). MS/MS analysis may be carried out under APCi positive ion mode. The same procedure may be followed for migalastat determination in plasma except without homogenization. […] A 12-point calibration curve and quality control samples may be prepared. […] To derive approximate molar concentrations, one gram of tissue may be estimated as one mL of volume.
PK data was collected every three months.

[3] = Severe RI Fabry patient 2004-5029 (P3), CLcr 21, 5/17, Q4D regimen
[4] = human, plasma, Severe RI Fabry patient 2004-5029 (P3), CLcr 21, 5/17, Q4D regimen

For `OC[C@H]1NC[C@H](O)[C@@H](O)[C@H]1O` [migalastat, (2R,3S,4R,55)-2-(hydroxymethyl) piperdine-3,4,5-triol], the “Comparison to FACETS PPK (migalastat concentration)” value (from here on “Comparison to FACETS PPK”) ([1]; 3 Hrs Post, (coefficient of variation)) was 1180 (31.0%), the “Comparison to FACETS PPK” value ([1]; 48 Hrs Post) was 8.70 and the “Comparison to FACETS PPK” value ([1]; 48 h) was 8.70. For the same compound, the “Comparison to FACETS PPK” value ([1]; Pre-dose (0 h)) was 8.70, the concentration at 48 h ([1]; human, plasma, 150 mg, FACETS population PK, 150 mg QOD, read-out: PPK Cmin) was 8.7 ng/mL and the AUC(0-t) ([1]; human, plasma, 150 mg, 011 PPK (CLcr ≥30-≥90 mL/min), N 62, QOD regimen, read-out: AUC0-t, Geometric mean) was 9030 ng·h/mL. It also gave a concentration at 48 h ([1]; human, plasma, 150 mg, 011 PPK (CLcr ≥30-≥90 mL/min), N 62, QOD regimen, read-out: C48 h, Mean) of 7.54 ng/mL, a Cmax ([1]; human, plasma, 150 mg, 011 PPK (CLcr ≥30-≥90 mL/min), N 62, QOD regimen, read-out: Cmax, Geometric mean (CV %)) of 1180 ng/mL and a half-life ([1]; human, plasma, 150 mg, 011 PPK (CLcr ≥30-≥90 mL/min), N 62, QOD regimen, read-out: t1/2, Mean (converted)) of 20.6 h. For the same compound, the AUC ([1]; human, plasma, 150 mg, reference AUC of the 011 PK model, the same value printed on every subject line) was 9520 ng·h/mL, the “Plasma Migalastat Conc” value ([2]; Fabry patient P3, May ′17 (Q4D), 0 h) was “BLQ” and the CL/F [2, 3] was 4.67 L/h. For the same compound, the Frel [2, 3] was 2.6, the concentration at 0 h ([2]; human, plasma, Plasma Migalastat Conc, Fabry patient P3, Aug ′15, 0 h) was 36.4 ng/mL and the concentration at 3 h ([2]; human, plasma, Plasma Migalastat Conc, Fabry patient P3, Aug ′15, 3 h) was 2160 ng/mL. For the same compound, the concentration at 24 h ([2]; human, plasma, Plasma Migalastat Conc, Fabry patient P3, Aug ′15, 24 h) was 211 ng/mL, the concentration at 48 h ([2]; human, plasma, Plasma Migalastat Conc, Fabry patient P3, Aug ′15, 48 h) was 62.4 ng/mL and the concentration at 48 h ([2]; human, plasma, Plasma Migalastat Conc, Fabry patient P3, Aug ′17 (Q4D), 48 h) was 130 ng/mL. For the same compound, the concentration at 96 h ([2]; human, plasma, Plasma Migalastat Conc, Fabry patient P3, Aug ′17 (Q4D), 96 h) was 61.3 ng/mL, the concentration at 0 h ([2]; human, plasma, Plasma Migalastat Conc, Fabry patient P3, Feb ′15, 0 h) was 19.9 ng/mL and the concentration at 3 h ([2]; human, plasma, Plasma Migalastat Conc, Fabry patient P3, Feb ′15, 3 h) was 1620 ng/mL. It also gave a concentration at 24 h ([2]; human, plasma, Plasma Migalastat Conc, Fabry patient P3, Feb ′15, 24 h) of 168 ng/mL, a concentration at 48 h ([2]; human, plasma, Plasma Migalastat Conc, Fabry patient P3, Feb ′15, 48 h) of 41.8 ng/mL and a concentration at 0 h ([2]; human, plasma, Plasma Migalastat Conc, Fabry patient P3, Mar ′11, 0 h) of 38.1 ng/mL. The concentration at 3 h ([2]; human, plasma, Plasma Migalastat Conc, Fabry patient P3, Mar ′11, 3 h) was 1560 ng/mL, the concentration at 4 h ([2]; human, plasma, Plasma Migalastat Conc, Fabry patient P3, Mar ′11, 4 h) was 1570 ng/mL and the concentration at 8 h ([2]; human, plasma, Plasma Migalastat Conc, Fabry patient P3, Mar ′11, 8 h) was 802 ng/mL. It also gave a concentration at 3 h ([2]; human, plasma, Plasma Migalastat Conc, Fabry patient P3, May ′17 (Q4D), 3 h) of 2110 ng/mL, a concentration at 4 h ([2]; human, plasma, Plasma Migalastat Conc, Fabry patient P3, May ′17 (Q4D), 4 h) of 1970 ng/mL and a concentration at 8 h ([2]; human, plasma, Plasma Migalastat Conc, Fabry patient P3, May ′17 (Q4D), 8 h) of 1380 ng/mL. It also gave a concentration at 24 h ([2]; human, plasma, Plasma Migalastat Conc, Fabry patient P3, May ′17 (Q4D), 24 h) of 358 ng/mL, a concentration at 48 h ([2]; human, plasma, Plasma Migalastat Conc, Fabry patient P3, May ′17 (Q4D), 48 h) of 77.4 ng/mL and a concentration at 96 h ([2]; human, plasma, Plasma Migalastat Conc, Fabry patient P3, May ′17 (Q4D), 96 h) of 18.4 ng/mL. The concentration at 48 h ([2]; human, plasma, Plasma Migalastat Conc, Fabry patient P3, Nov ′17 (Q4D), 48 h) was 401 ng/mL, the concentration at 96 h ([2]; human, plasma, Plasma Migalastat Conc, Fabry patient P3, Nov ′17 (Q4D), 96 h) was 86.2 ng/mL and the concentration at 48 h ([2]; human, plasma, Severe RI Fabry patient 2004-5029 (P3), CLcr 15, 11/17, Q4D regimen, read-out: C48 h) was 401 ng/mL. The concentration at 96 h ([2]; human, plasma, Severe RI Fabry patient 2004-5029 (P3), CLcr 15, 11/17, Q4D regimen, read-out: C96 h) was 86.2 ng/mL, the concentration at 48 h ([2]; human, plasma, Severe RI Fabry patient 2004-5029 (P3), CLcr 19, 8/17, Q4D regimen, read-out: C48 h) was 130 ng/mL and the concentration at 96 h ([2]; human, plasma, Severe RI Fabry patient 2004-5029 (P3), CLcr 19, 8/17, Q4D regimen, read-out: C96 h) was 61.3 ng/mL. It also gave an AUC(0-inf) [2, 4] of 32100 ng·h/mL, an AUC(0-t) [2, 4] of 31900 ng·h/mL and a Cmax [2, 4] of 2250 ng/mL. It also gave a half-life [2, 4] of 13.2 h, a tmax [2, 4] of 2 h and a concentration at 48 h ([2]; human, plasma, Severe RI Fabry patient 2004-5029 (P3), CLcr 21, 5/17, Q4D regimen, read-out: C48 h) of 77.4 ng/mL. The concentration at 96 h ([2]; human, plasma, Severe RI Fabry patient 2004-5029 (P3), CLcr 21, 5/17, Q4D regimen, read-out: C96 h) was 18.4 ng/mL.
